Reference: the NIST ThermoML archive (doi:10.1021/je040006u)
± gives the expanded uncertainty stated by the source.

Assays:
[1] = 101.3 kPa, Liquid, Pycnometric method
[2] = xn = mol fraction of the nth substance listed; settings: 101.3 kPa, Liquid, Pycnometric method, x1 = 1

mass density ([1]; 291.15 K) [kg/m3]	mass density ([1]; 293.15 K) [kg/m3]	mass density ([1]; 298.15 K) [kg/m3]	mass density ([1]; 303.15 K) [kg/m3]	mass density ([1]; 308.15 K) [kg/m3]	mass density ([2]; 291.15 K) [kg/m3]	mass density ([2]; 293.15 K) [kg/m3]	mass density ([2]; 298.15 K) [kg/m3]	mass density ([2]; 303.15 K) [kg/m3]	mass density ([2]; 308.15 K) [kg/m3]	Compound
966.52 ± 2.6	964.88 ± 2.6	960.29 ± 2.6	955.76 ± 2.6	951.1 ± 2.6						COCCO [2-methoxyethan-1-ol]
					966.52 ± 2.6	964.88 ± 2.6	960.29 ± 2.6	955.76 ± 2.6	951.1 ± 2.6	COCCO [2-methoxyethan-1-ol] + CCCNCCC
738.47 ± 2	737.2 ± 2	732.56 ± 2	728.2 ± 2	723.64 ± 2						CCCNCCC [dipropylamine]
